Measurements published in patent US20260158177A1, “COMPOUNDS SPECIFIC TO GRANZYME B AND USES THEREOF” (CYTOSITE BIOPHARMA INC., priority 2021, published 2026).
Numbered stars: 1 amine (or outer) side, 2 acyl side, 3 side chain; on linkers, the order of the positions; unused ones are H or OH. Square brackets hold non-standard residues; d marks the D form. Peptide text beside a SMILES is read from it. * marks the point of attachment. X2 = O=C1CN2CCN(CCN(CC3CCN(CC(=O)*)CC3)CC2)CC(=O)[O][Al]([F])[O]1; Haic = O=C1[C@@H](N[*:1])CCc2cccc3c2N1[C@H](C(=O)[*:2])C3; NH(5-HO-2-oxo-oxolan-4-yl) = O=C1CC(N*)C(O)O1

Target: T1, human granzyme B (Homo sapiens, UniProt P10144)
T1 construct: from tissue; host or cells: human lymphocytes
T1 sequence (P10144 21-247): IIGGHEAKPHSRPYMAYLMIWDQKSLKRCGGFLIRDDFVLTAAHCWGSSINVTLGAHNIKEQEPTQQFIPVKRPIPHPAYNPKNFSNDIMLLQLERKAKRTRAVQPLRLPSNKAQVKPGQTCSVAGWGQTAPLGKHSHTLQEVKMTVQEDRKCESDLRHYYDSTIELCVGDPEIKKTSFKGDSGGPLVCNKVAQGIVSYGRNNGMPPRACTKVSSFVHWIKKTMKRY
Assay: Competitive binding assay of human granzyme B with Compound ^18F-21-Al radioligand
Details: competition with 20 nM Compound ^18F-21-Al, human lymphocyte GZB, 37° C., 90 minutes
Procedure: Purpose: To perform competitive binding assays with human granzyme B using Compound ^18F-21-Al to determine IC50 values of potential granzyme B ligands
Initial Plate Preparation (including total binding and non-specific binding): • 1. 78 μL of reaction buffer, as described above, is added to each well in a 96 well plate • 2. For wells used to examine total binding (defined as the binding of the radioligand in the absence of competitors), 2 μL of DMSO is added to give 1% final DMSO concentration for all wells • 3. For wells used to examine non-specific binding (defined as the binding of the radioligand in the presence of 10 μM 21), 2 μL of 1 mM Compound 21 is added to give a final concentration of 10 μM
• 1. Granzyme B (GZB, human lymphocyte) is diluted to 0.5 μg/mL using reaction buffer as described above • 2. 100 μL of 0.5 μg/mL diluted human GzB is added to each well, giving 50 ng per well and a final concentration of 0.25 μg/mL
• 1. DMSO or water is added to the respective compound vial to make 1 mM compound stock solution • 2. 1 mM compound stock solution is serially diluted by ½ log (3.16 fold) by adding 18.5 μL of compound stock to 40 μL of DMSO, mixing by pipetting up and down, and transferring 18.5 μL of the mixture to 40 μL of DMSO. This process is repeated to create 10 dilution points for test compounds. • 3. For wells used to examine ligand binding competition, 2 μL of each dilution is dispensed into the 96 well plates prepared as described above, giving a further dilution of 1/100.
• 1. 200 nM of Compound ^18F-21-Al (10× radioligand stock) is prepared in reaction buffer, aiming for approximately 2 million CPM per 20 μL of solution (input). • 2. 20 μL of radioligand stock is dispensed into each well to give a final concentration per well of 20 nM.
• 1. All 96 wells should have a final volume of 200 μL, and the assay plates are incubated at 37° C. for 90 minutes. • 2. All samples from the assay plates are transferred to MultiScreenHTS FB plates that have been presoaked in PBS buffer, pH 7.4, and filtered using a vacuum manifold. An additional 150 μL of PBS buffer is added to each well in the assay plates and combined to ensure transfer of any remaining samples • 3. MultiScreenHTS FB plates are washed 3× with 150 μL of PBS buffer. • 4. All filters are separated and transferred to individual tubes using Multiscreen punch tips and the Millipore multiple punch apparatus • 5. The sample set is analyzed using the Wizard 2480 automatic gamma-counter [Perkin Elmer] through a [^18F]-specific profile. Values are reported as decay-corrected counts per minute (CPM). • 6. Resulting CPM values are normalized and converted to % inhibition by the following equation:
[formula] • *the total bound fraction is typically less than 10% of the added radioligand under such assay conditions. • Resulting % inhibition values were plotted using the software GraphPad Prism 8.4.3 using the One site—Fit log IC50 equation to determine the IC50 value for each ligand.
[formula] • Y=% Inhibition • X=Log concentration of the cold competing ligand (M) • A=minimum Y (0%) • B=maximum Y (100%) • Log IC50=Log concentration of cold competing ligand (M) at half-way between minimum and maximum Y

Point of comparison: `CC[C@H](C)[C@H](NC(=O)COCCNC(=O)[C@@H](CCC(=O)O)NC(=O)[C@@H](CCC(=O)O)NC(=O)CN1CCN(C(=O)CN2CCN3CCN(CC2)CC(=O)[O][Al]([F])[O]C(=O)C3)CC1)C(=O)N[C@H]1CCc2cccc3c2N(C1=O)[C@H](C(=O)NC1CC(=O)OC1O)C3` (stereo partly drawn) [Compound 10-Al, 2,2′-(7-(2-(4-((4R,7R,16S,17S)-4,7-bis(2-carboxyethyl)-16-(((3S,6S)-6-((2-hydroxy-5-oxotetrahydrofuran-3-yl)carbamoyl)-4-oxo-1,2,3,4,6,7-hexahydroazepino[3,2,1-hi]indol-3-yl)carbamoyl)-17-methyl-2,5,8,14-tetraoxo-12-oxa-3,6,9,15-tetraazanonadecyl)piperazin-1-yl)-2-oxoethyl)-1,4,7-triazonane-1,4-diyl)diacetic acid, aluminum fluoride complex (1:1)], IC50 3.6 nM. Against it:
- CC[C@H](C)[C@H](NC(=O)CCNC(=O)CCNC(=O)[C@@H](CCC(=O)O)NC(=O)CN1CCN(C(=O)CN2CCN3CCN(CC2)CC(=O)[O][Al]([F])[O]C(=O)C3)CC1)C(=O)N[C@H]1CCc2cccc3c2N(C1=O)[C@H](C(=O)NC1CC(=O)OC1O)C3 (stereo partly drawn) [Compound 12-Al, 2,2′-(7-(2-(4-((4R,15S,16S)-4-(2-carboxyethyl)-15-(((3S,6S)-6-((2-hydroxy-5-oxotetrahydrofuran-3-yl)carbamoyl)-4-oxo-1,2,3,4,6,7-hexahydroazepino[3,2,1-hi]indol-3-yl)carbamoyl)-16-methyl-2,5,9,13-tetraoxo-3,6,10,14-tetraazaoctadecyl)piperazin-1-yl)-2-oxoethyl)-1,4,7-triazonane-1,4-diyl)diacetic acid, aluminum fluoride complex (1:1)] — within 1.5-fold, 4.2 nM
- CC[C@H](C)[C@H](NC(=O)CNC(=O)CNC(=O)[C@H](CCC(=O)O)NC(=O)CN1CCC(CN2CCN3CCN(CC2)CC(=O)[O][Al]([F])[O]C(=O)C3)CC1)C(=O)N[C@H]1CCc2cccc3c2N(C1=O)[C@H](C(=O)NC1CC(=O)OC1O)C3 (stereo partly drawn) [Compound 2-Al, 2,2′-(7-((1-((4S,13S,14S)-4-(2-carboxyethyl)-13-(((3S,6S)-6-((2-hydroxy-5-oxotetrahydrofuran-3-yl)carbamoyl)-4-oxo-1,2,3,4,6,7-hexahydroazepino[3,2,1-hi]indol-3-yl)carbamoyl)-14-methyl-2,5,8,11-tetraoxo-3,6,9,12-tetraazahexadecyl)piperidin-4-yl)methyl)-1,4,7-triazonane-1,4-diyl)diacetic acid aluminum fluoride complex (1:1)] (X2-EGGI[Haic]-{NH(5-HO-2-oxo-oxolan-4-yl)}) — 2.1-fold higher, 7.5 nM
- CC[C@H](C)[C@H](NC(=O)CCNC(=O)CC[C@H](NC(=O)CN1CCC(CN2CCN3CCN(CC2)CC(=O)[O][Al]([F])[O]C(=O)C3)CC1)C(=O)O)C(=O)N[C@H]1CCc2cccc3c2N(C1=O)[C@H](C(=O)NC1CC(=O)OC1O)C3 (stereo partly drawn) [Compound 6-Al, 2,2′-(7-((1-(2-(((1S)-1-carboxy-4-((3-(((2S,3S)-1-(((3S,6S)-6-((2-hydroxy-5-oxotetrahydrofuran-3-yl)carbamoyl)-4-oxo-1,2,3,4,6,7-hexahydroazepino[3,2,1-hi]indol-3-yl)amino)-3-methyl-1-oxopentan-2-yl)amino)-3-oxopropyl)amino)-4-oxobutyl)amino)-2-oxoethyl)piperidin-4-yl)methyl)-1,4,7-triazonane-1,4-diyl)diacetic acid, aluminum fluoride complex (1:1)] — within 1.5-fold, 4.5 nM
- CC[C@H](C)[C@H](NC(=O)CCNC(=O)CN(CC(=O)O)C(=O)CCNC(=O)CN1CCC(CN2CCN3CCN(CC2)CC(=O)[O][Al]([F])[O]C(=O)C3)CC1)C(=O)N[C@H]1CCc2cccc3c2N(C1=O)[C@H](C(=O)NC1CC(=O)OC1O)C3 (stereo partly drawn) [Compound 3-Al, 2,2′-(7-((1-((15S,16S)-7-(carboxymethyl)-15-(((3S,6S)-6-((2-hydroxy-5-oxotetrahydrofuran-3-yl)carbamoyl)-4-oxo-1,2,3,4,6,7-hexahydroazepino[3,2,1-hi]indol-3-yl)carbamoyl)-16-methyl-2,6,9,13-tetraoxo-3,7,10,14-tetraazaoctadecyl)piperidin-4-yl)methyl)-1,4,7-triazonane-1,4-diyl)diacetic acid, aluminum fluoride complex (1:1)] — within 1.5-fold, 4.7 nM
- CC[C@H](C)[C@H](NC(=O)COCCOCCNC(=O)COCCOCCNC(=O)[C@@H](CCC(=O)O)NC(=O)CN1CCN(C(=O)CN2CCN3CCN(CC2)CC(=O)[O][Al]([F])[O]C(=O)C3)CC1)C(=O)N[C@H]1CCc2cccc3c2N(C1=O)[C@H](C(=O)NC1CC(=O)OC1O)C3 (stereo partly drawn) [Compound 11-Al, 2,2′-(7-(2-(4-((4R,25S,26S)-4-(2-carboxyethyl)-25-(((3S,6S)-6-((2-hydroxy-5-oxotetrahydrofuran-3-yl)carbamoyl)-4-oxo-1,2,3,4,6,7-hexahydroazepino[3,2,1-hi]indol-3-yl)carbamoyl)-26-methyl-2,5,14,23-tetraoxo-9,12,18,21-tetraoxa-3,6,15,24-tetraazaoctacosyl)piperazin-1-yl)-2-oxoethyl)-1,4,7-triazonane-1,4-diyl)diacetic acid, aluminum fluoride complex (1:1)] — 1.5-fold lower, 2.4 nM
- CC[C@H](C)[C@H](NC(=O)CCNC(=O)CCNC(=O)[C@H](CC(C(=O)O)C(=O)O)NC(=O)CN1CCN(C(=O)CN2CCN3CCN(CC2)CC(=O)[O][Al]([F])[O]C(=O)C3)CC1)C(=O)N[C@H]1CCc2cccc3c2N(C1=O)[C@H](C(=O)NC1CC(=O)OC1O)C3 (stereo partly drawn) [Compound 15-Al, 2-((2S)-2-(2-(4-(2-(4,7-bis(carboxymethyl)-1,4,7-triazonan-1-yl)acetyl)piperazin-1-yl)acetamido)-3-((3-((3-(((2S,3S)-1-(((3S,6S)-6-((2-hydroxy-5-oxotetrahydrofuran-3-yl)carbamoyl)-4-oxo-1,2,3,4,6,7-hexahydroazepino[3,2,1-hi]indol-3-yl)amino)-3-methyl-1-oxopentan-2-yl)amino)-3-oxopropyl)amino)-3-oxopropyl)amino)-3-oxopropyl) malonic acid, aluminum fluoride complex (1:1)] — within 1.5-fold, 2.5 nM
- CC[C@H](C)[C@H](NC(=O)COCCNC(=O)[C@@H](CCC(=O)O)NC(=O)[C@@H](CCC(=O)O)NC(=O)CN1CCC(CN2CCN3CCN(CC2)CC(=O)[O][Al]([F])[O]C(=O)C3)CC1)C(=O)N[C@H]1CCc2cccc3c2N(C1=O)[C@H](C(=O)NC1CC(=O)OC1O)C3 (stereo partly drawn) [Compound 4-Al, 2,2′-(7-((1-((4R,7R,16S,17S)-4,7-bis(2-carboxyethyl)-16-(((3S,6S)-6-((2-hydroxy-5-oxotetrahydrofuran-3-yl)carbamoyl)-4-oxo-1,2,3,4,6,7-hexahydroazepino[3,2,1-hi]indol-3-yl)carbamoyl)-17-methyl-2,5,8,14-tetraoxo-12-oxa-3,6,9,15-tetraazanonadecyl)piperidin-4-yl)methyl)-1,4,7-triazonane-1,4-diyl)diacetic acid, aluminum fluoride complex (1:1)] — within 1.5-fold, 2.8 nM
